In one test the target is D(2) dopamine receptor (Rattus norvegicus, UniProt P61169). Description: Binding affinity against Dopamine receptor D2 using [3H]spiroperidol.
Test [1] is filed under the species Rattus norvegicus. Description: Inhibition of [3H]norepinephrine uptake in rat brain synaptosomes. The class given is functional, organism-based.
For test [2], the species on record is Rattus norvegicus. Put plainly: Inhibition of [3H]-dopamine uptake in rat brain synaptosomes. The class given is functional, organism-based.

Chain of D(2) dopamine receptor (P61169 whole entry): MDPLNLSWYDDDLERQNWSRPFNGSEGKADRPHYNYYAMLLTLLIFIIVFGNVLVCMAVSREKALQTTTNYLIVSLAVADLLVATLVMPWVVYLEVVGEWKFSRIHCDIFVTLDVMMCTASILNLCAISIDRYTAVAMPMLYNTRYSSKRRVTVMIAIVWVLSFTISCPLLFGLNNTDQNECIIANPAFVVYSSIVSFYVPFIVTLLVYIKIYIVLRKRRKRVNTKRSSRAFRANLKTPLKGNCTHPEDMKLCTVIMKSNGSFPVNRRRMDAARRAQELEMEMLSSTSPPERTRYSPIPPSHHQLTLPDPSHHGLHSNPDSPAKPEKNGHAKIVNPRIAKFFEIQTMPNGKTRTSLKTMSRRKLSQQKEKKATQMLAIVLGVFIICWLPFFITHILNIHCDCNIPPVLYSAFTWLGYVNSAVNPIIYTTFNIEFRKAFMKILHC

As to `CC(C)[C@]1(O)CCN2C[C@H]3c4ccccc4CCc4cccc(c43)[C@@H]2C1`, the IC50 at D(2) dopamine receptor was 0.006 µM. This lies in the single-digit nanomolar range.

For `OCCN1CCN([C@H]2C[C@H](c3ccc(F)cc3)c3ccc(C(F)(F)F)cc32)CC1`, the IC50 in the test filed under Rattus norvegicus [1] (Rattus norvegicus, Brain, 3 h) worked out at 0.73 µM; in the test listed under Rattus norvegicus [2] (Rattus norvegicus, Brain, 3 h), 0.13 µM; at D(2) dopamine receptor, 0.59 µM.

For `CN1CCN(C2Cc3ccccc3Sc3ccc(Cl)cc32)CC1` (racemic) [CLOROTEPINE], the IC50 in the test filed under Rattus norvegicus [1] (Rattus norvegicus, Brain, 3 h) came to 0.00064 µM; in the test listed under Rattus norvegicus [2] (Rattus norvegicus, Brain, 3 h), 6.3 µM.

In turn, `CC(C)[C@@]1(O)CCN2C[C@@H]3c4ccccc4CCc4cccc(c43)[C@H]2C1` [DEXCLAMOL] registered an IC50 on D(2) dopamine receptor of 0.9 µM.

Take `OCCN1CCN([C@@H]2C[C@@H](c3ccc(F)cc3)c3ccc(C(F)(F)F)cc32)CC1` [TEFLUDAZINE]: the IC50 in the test listed under Rattus norvegicus [1] (Rattus norvegicus, Brain, 3 h) is 15 µM; in the test filed under Rattus norvegicus [2] (Rattus norvegicus, Brain, 3 h), 2.2 µM; on D(2) dopamine receptor, 0.014 µM.

(-)-BUTACLAMOL: the IC50 in the test listed under Rattus norvegicus [1] turned out to be 7.4 µM; in the test listed under Rattus norvegicus [2], 9.5 µM.

In general, IC50 refers to the midpoint of a concentration-inhibition curve. Read a high IC50 as weaker potency.
